Measurements from the PolyMetriX glass transition set.
± gives the standard deviation of the reports.

| SMILES | glass transition temperature |
| --- | --- |
| *c1ccc(-c2ccc(-n3c(-c4ccc(Oc5ccc(C(=O)c6ccc(Oc7ccc(-c8nc9ccccc9n8*)cc7)cc6)cc5)cc4)nc4ccccc43)cc2)cc1 (repeat unit) | 268.00 °C |
| *Oc1ccc(C2(c3ccc(Oc4nc(*)nc(OC)n4)cc3)CCCCC2)cc1 (repeat unit) | 200.00 °C |
| *c1ccc2c(c1)C(CCCCCC)(CCCCCC)c1cc(-c3cc(CCCCCCCC)c(*)cc3CCCCCCCC)ccc1-2 (repeat unit) | 74.50 °C |
| *CC1(*)CCCCC1 (repeat unit) | 100.00 °C |
| *CC(*)c1ccc(CCC)cc1 (repeat unit) | 46.8 °C |
| *Oc1ccc(-c2ccc(-c3ccc(Oc4ccc(C(c5ccc(*)cc5)(C(F)(F)F)C(F)(F)F)cc4)c(C(F)(F)F)c3)cc2)cc1C(F)(F)F (repeat unit) | 207.50 °C |
| *CC(*)C(F)(F)C(F)(F)C(F)(F)F (repeat unit) [Poly[(heptafluoropropyl)ethylene] ] | 58 ± 0.6 °C |
| *Oc1cccc(NC(=O)c2ccc([Si](C)(C)c3ccc(C(*)=O)cc3)cc2)c1 (repeat unit) | 220.00 °C |
| *c1ccc(C(=O)Nc2ccc(Oc3ccc(Oc4ccc(NC(=O)c5ccc(Oc6ccc(-c7nn(*)c(=O)c8ccccc78)c7ccccc67)cc5)cc4)cc3)cc2)cc1 (repeat unit) | 289.50 °C |
| *c1c(C)cc(-c2cc(C)c(N3C(=O)c4ccc(Oc5c(C)cc(Cc6cc(C)c(Oc7ccc8c(c7)C(=O)N(*)C8=O)c(C)c6)cc5C)cc4C3=O)c(C)c2)cc1C (repeat unit) | 420.00 °C |
| *c1ccc(Oc2ccc(-c3cnc4ccc(-c5ccc6nc(*)cnc6c5)cc4n3)cc2)cc1 (repeat unit) | 280.00 °C |
| *c1ccc(C(=O)Oc2c(C)cc(C(c3cccnc3)c3cc(C)c(OC(=O)c4ccc(N5C(=O)CC(Nc6cccc(NC7CC(=O)N(*)C7=O)c6)C5=O)cc4)c(C)c3)cc2C)cc1 (repeat unit) | 194.00 °C |
| *Nc1cc(NC(=O)NC2CCC(CC3CCC(NC(*)=O)CC3)CC2)cc(C(=O)Nc2cccc3c2C(=O)c2ccccc2C3=O)c1 (repeat unit) | 156.00 °C |
| *CCCCCCCCCCCCCCNC(=O)CCCCCCCCCCCCCCCCC(=O)N* (repeat unit) | 48.00 °C |
| *CCCCCCCCCCCC(=O)N(*)C (repeat unit) | -29.00 °C |
| *c1ccc(Oc2ccc(C(=O)c3cccc(C(=O)c4ccc(Oc5ccc(N6C(=O)c7ccc([Si](C)(C)c8ccc9c(c8)C(=O)N(*)C9=O)cc7C6=O)cc5)cc4)c3)cc2)cc1 (repeat unit) | 208.00 °C |
| *c1cccc(C(=O)Nc2ccc(Oc3ccc(Oc4ccc(NC(=O)c5cccc(N6C(=O)c7ccc(-c8ccc9c(c8)C(=O)N(*)C9=O)cc7C6=O)c5)cc4)cc3)cc2)c1 (repeat unit) | 244.00 °C |
| *c1ccc(Nc2ccc(C3(c4ccc(Nc5ccc(S(*)(=O)=O)cc5)c(F)c4)c4ccccc4-c4ccccc43)cc2F)cc1 (repeat unit) | 145.00 °C |
| *O[Si](*)(C)CCCOCCOCCOCCOC (repeat unit) | -64.21 °C |
| *CCCCCCCCNC(=O)CCCCCCCCCCCCCCCCC(=O)N* (repeat unit) | 36.00 °C |
| *c1ccc(C(c2ccc(N(*)c3ccc(C)cc3)cc2)c2ccc([N+](=O)[O-])cc2)cc1 (repeat unit) | 215.00 °C |
| *CCCCCCCCCCOc1ccc(/C=C2\CCC/C(=C\c3ccc(O*)c(OC)c3)C2=O)cc1OC (repeat unit) | 60.00 °C |

| SMILES | glass transition temperature |
| --- | --- |
| *O[Si](*)(C)CCCOc1ccc(C(=O)OCCOc2ccc(C(=O)OC3CCC4(C)C(=CCC5C4CCC4(C)C(C(C)CCCC(C)C)CCC54)C3)cc2)cc1 (repeat unit) | 42.00 °C |
| *C#Cc1cc(C(C)(C)C)cc2c3cc(C(C)(C)C)cc(*)c3n(CCCCCCCCCCCCCCCC)c12 (repeat unit) | 80.00 °C |
| *CCN(*)C(=O)c1cccc(F)c1F (repeat unit) | 110.00 °C |
| *Cc1cc(C)c(CNC(=O)c2ccc(C(=O)N*)cc2)cc1C (repeat unit) | 225.00 °C |
| */C=C/* (repeat unit) | -4.00 °C |
| *CC(*)(C)C(=O)OC(C)(C)C (repeat unit) [Poly(t-butyl methacrylate) ] | 107 ± 0.6 °C |
| *Oc1ccc(CC(NC(=O)CCc2ccc(OC(=O)CCCC(*)=O)cc2)C(=O)OCCCCCCCCCCCC)cc1 (repeat unit) | 27.50 °C |
| *O[Si](*)(C)CCCCCCCCCCCOc1ccc(-c2ccc(C(=O)Oc3ccc(C(=O)OC(C)C(=O)OC(C)C(=O)OCC(C)CC)cc3)cc2)cc1 (repeat unit) | 20.00 °C |
| *Oc1cccc(NC(=O)CCCCCCCCC(=O)Nc2ccc(*)cc2)c1 (repeat unit) | 125.00 °C |
| *c1ccc(-c2cc(C(C)(C)C)c(Oc3ccc(N4C(=O)c5ccc6c7c(ccc(c57)C4=O)C(=O)N(*)C6=O)cc3C(F)(F)F)c(C(C)(C)C)c2)cc1 (repeat unit) | 456.00 °C |
| *c1ccc(Oc2ccc(-c3ccc(Oc4ccc(N5C(=O)c6cccc(Oc7cc(C(C)(C)C)c(Oc8cccc9c8C(=O)N(*)C9=O)cc7C(C)(C)C)c6C5=O)cc4)cc3)cc2)cc1 (repeat unit) | 275.00 °C |
| *Oc1ccc(C(C)(C)c2ccc(OC(=O)OCCN(CCOC(*)=O)c3ccc(OC)cc3)cc2)cc1 (repeat unit) | 60.00 °C |
| *Nc1ccc(*)cc1OC (repeat unit) | 90.00 °C |
| *CC(*)c1ccc(S(=O)(=O)OCCC)cc1 (repeat unit) | 217.00 °C |
| *Oc1ccc(CC(NC(=O)CCc2ccc(OC(=O)CCCCCCC(*)=O)cc2)C(=O)OC)cc1 (repeat unit) | 55.50 °C |
| *CC(COc1ccc(C(C)(C)c2ccc(O*)cc2)cc1)OC(=O)/C=C/c1ccccc1 (repeat unit) | 100.60 °C |
| *Oc1ccc(C(C)(C)c2ccc(Oc3cccc(*)n3)cc2)cc1 (repeat unit) | 107.00 °C |
| *Nc1ccc(C(c2ccc(NC(=O)c3ccc4cc(C(*)=O)ccc4c3)cc2)(P2(=O)Oc3ccccc3-c3ccccc32)P2(=O)Oc3ccccc3-c3ccccc32)cc1 (repeat unit) | 241.00 °C |
| *CC(*)C(=O)c1ccc(Cl)cc1 (repeat unit) | 63.00 °C |
| *CCCCN1C(=O)C2C3C=CC(C4C(=O)N(*)C(=O)C34)C2C1=O (repeat unit) | 211.00 °C |
| *CCCS(=O)(=O)CCCS(=O)(=O)CCCOC(=O)c1cccc(C(=O)O*)c1 (repeat unit) | 67.00 °C |
| *CCCCCCCCCCCc1nc2ccc(-c3ccc4nc(*)oc4c3)cc2o1 (repeat unit) | 62.00 °C |

| SMILES | glass transition temperature |
| --- | --- |
| *C1C(=O)N(C(C)CC)C(=O)C1* (repeat unit) | 205.00 °C |
| *CCCCCCCCCCCCCCCCCCNC(=O)NCc1ccc(CNC(=O)N*)cc1 (repeat unit) | 52.00 °C |
| *CC(*)(C)c1ccc(C(C)C)cc1 (repeat unit) | 140.00 °C |
| *c1ccc(S(=O)(=O)c2ccc(NC(=O)c3cccc(C(=O)Nc4ccc(S(=O)(=O)c5ccc(-n6c(=O)c7cc8c(=O)n(*)c(=O)c8cc7c6=O)cc5)cc4)c3)cc2)cc1 (repeat unit) | 286.00 °C |
| *CC/C=C(/*)C (repeat unit) [Polyisoprene (cis)] | -67.00 ± 7 °C |
| *c1ccc(Oc2ccc(N3C(=O)c4ccc(S(=O)(=O)c5ccc6c(c5)C(=O)N(*)C6=O)cc4C3=O)cc2Br)c(Br)c1 (repeat unit) | 281.00 °C |
| *c1ccc(Oc2ccc(C(C)(C)c3ccc(Oc4ccc(-c5nnc(*)n5-c5ccccc5)cc4)cc3)cc2)cc1 (repeat unit) | 207.00 °C |
| *CC(*)c1c(F)c(F)c(P(=O)(O)O)c(F)c1F (repeat unit) | 330.00 °C |
| *CCCCOC(=O)OCC1CCC(COC(=O)O*)CC1 (repeat unit) | 13.00 °C |
| *CC(COc1ccc(O*)cc1)OC(C)=O (repeat unit) | 49.00 °C |
| *Oc1ccc(C2(c3ccc(OC(*)=O)cc3)CC3CC2C2CCCC32)cc1 (repeat unit) | 251.50 °C |
| *CCCCCCOP(=O)(/N=N/c1ccc(Oc2ccc(/N=N/P(=O)(O*)OC)cc2)cc1)OC (repeat unit) | 25.00 °C |
| *CC(*)(C)C(=O)OC1CCC2CCCCC2C1 (repeat unit) | 145.00 °C |
| *CCCC1(CCCNC(=O)CCCCCCCCC(=O)N*)c2ccccc2-c2ccccc21 (repeat unit) | 85.00 °C |
| *c1ccc(Cc2ccc(N3C(=O)CC(Nc4ccc(Cc5ccc(NC6CC(=O)N(*)C6=O)cc5)cc4)C3=O)cc2)cc1 (repeat unit) | 239.00 °C |
| *c1ccc(N2C(=O)CC(C3C=C(C)C4C(=O)N(*)C(=O)C4C3)C2=O)cc1 (repeat unit) | 327.00 °C |
| *Oc1ccc(P(=O)(c2ccccc2)c2ccc(*)cc2)cc1 (repeat unit) | 240.00 °C |
| *Oc1ccc(CCNC(=O)c2cccc(C(=O)NCCc3ccc(OC(=O)c4cccc(C(*)=O)c4)cc3)c2)cc1 (repeat unit) | 147.00 °C |
| *c1ccc(Oc2ccc(C(=O)c3cccc(C(=O)c4ccc(Oc5ccc(-c6c7c(c(*)c8ccccc68)C(=O)N(CCCCCCCCCCCC)C7=O)cc5)cc4)c3)cc2)cc1 (repeat unit) | 140.00 °C |
| *CCCCCC(=O)Oc1ccc(Oc2ccc(OC(=O)CCCCCn3c(=O)c4cc5c(=O)n(*)c(=O)c5cc4c3=O)cc2)cc1 (repeat unit) | 91.00 °C |
| *c1ccc(Oc2ccc(N3C(=O)c4ccc(Oc5cccc6c(Oc7ccc8c(c7)C(=O)N(*)C8=O)cccc56)cc4C3=O)cc2)cc1 (repeat unit) | 240.00 °C |
| *c1ccc2c(c1)Sc1cc(-c3ccc(-c4ccc(*)s4)s3)ccc1N2CCCCCCCCCCCC (repeat unit) | 150.00 °C |
